Experimental data: publication PMC8300761, “In Vitro Antifungal Activity and Toxicity of Dihydrocarvone-Hybrid Derivatives against Monilinia fructicola” (Antibiotics, 2021)
Values after ≈ are worked out from the molar mass of the structure shown.

Assays:
[1] = test system: Monilinia fructicola strain 2 (S2); assay: radial mycelial growth test, M. fructicola strain 2 (S2); type: cell-based; conditions: PDA, 120 h at 24 °C in the dark, n = 6, read-out: EC50 ± SD, mycelial growth inhibition
Excerpt: (§1) Both strains (S1 and S2) of M. fructicola were kindly provided by the phytopathology laboratory of the Servicio Agrícola y Ganadero de Chile (SAG), Santiago, Chile. The isolate S1 was recovered from infected peach from commercial orchards in the O’Higgins region, Chile, and the isolate S2 was recovered from infected nectarines from commercial orchards in the province of Maipo, Metropolitan Region, Chile and identified to species level with a PCR assay developed by the molecular biology laboratory belonging to SAG; these were maintained on potato dextrose agar (PDA) and incubated for 120 h at 24 °C.
(§2) The antifungal activity of all dihidrocarvone-hybrid derivatives (2–9) against both strains of M. fructicola was determined by the radial test previously reported. The test compounds were dissolved in ethanol (5% v/v) and added to the potato dextrose agar medium (PDA) medium in the petri dishes to obtain a final concentration of 10, 25, 50, 150, and 250 µg/mL. The mycelial growth diameters were measured after 120 h of incubation at 24 °C in the dark, and the inhibition percentages were calculated with respect to the negative ethanol control. The commercial fungicides Mystic® 520 SC (Pyrimethanil 400 g/L, Trifloxystrobin 120 g/L) (Lot: PAIS004727; Bayer, Santiago, Chile) and BC-1000® (grapefruit seed and pulp extract (Citrus x paridisi), 50% w/v (500 g/L)) were used as positive controls and were measured under the same conditions as the compounds.
(§3) The results were expressed as the effective concentration (EC50) that reduced mycelial growth by 50%. This value was determined by regressing the values of the percentage inhibition of radial growth against the compound concentration values. The fit analysis was performed using the Origin Pro® V. 8.0 software (OriginLab Corporation, Northampton, Massachusetts, EE.UU). These experiments were performed in triplicate and each assay was performed twice (n = 6). Significant differences were determined using a one-way analysis of variance, followed by a pairwise comparison of means (LSD test; p < 0.05) (Microsoft Office Excel® 2016).

[2] = test system: Monilinia fructicola strain 1 (S1); assay: radial mycelial growth test, M. fructicola strain 1 (S1); type: cell-based; conditions: PDA, 120 h at 24 °C in the dark; for EC50: Monilinia fructicola, 120 h, n = 6, read-out: EC50 ± SD, mycelial growth inhibition; for EC50 ± SD, mycelial growth inhibition: n = 6
Excerpt: as §1, §2, §3

Artemia salina L. larvae = assay: brine shrimp lethality test (BSLT); type: in vivo; conditions: for LD50 (BSLT): Artemia salina larvae, 24 h, probit analysis
Procedure: The assay was carried out according to the principle and protocol previously described. Briefly, Artemia salina L. eggs were inserted into a box containing seawater; the box was placed under a UV lamp; after 48 h, the eggs hatched into larvae and were ready for the test. All of the compounds were dissolved in methanol at final concentrations of 1000 to 10 µg/mL. After 24 h, the live and dead shrimp were counted. The experiment was conducted in triplicate. The median lethal concentrations (LD50) with 95% confidence intervals were determined using the Probit analysis method. For LC50 values, probit analysis was used with Minitab V. 15 software (Minitab® Statistical Software, State College, PA, USA).

[3] = test system: both strains of M. fructicola; assay: radial mycelial growth test, inhibition percentages over both strains; type: cell-based; conditions: Monilinia fructicola, range over strains 1 and 2, read-out: inhibition percentage of mycelial growth
Excerpt: as §1
as §2, with “The test compounds were dissolved in ethanol (5% v/v) and added to the potato dextrose agar medium (PDA) medium in the petri dishes to obtain a final concentration of 10, 25, 50, 150, and 250 µg/mL.” left out, “compounds. […]” for “compounds.”

Compound	EC50 [1] [µg/mL]	EC50 [2] [µg/mL]	EC50 ± SD, mycelial growth inhibition [2] [µg/mL]	LD50 (BSLT) (Artemia salina L. larvae) [µg/mL]	inhibition at 150 µg/mL ([3]; 150 µg/mL) [%]	inhibition at 250 µg/mL ([3]; 250 µg/mL) [%]	times less toxic than the commercial control of M. fructicola (BSLT) (Artemia salina L. larvae; compared with the commercial control (Mystic 520 SC)) [times]
C=C(C)[C@@H]1CCC(C)C(=O)C1=Cc1ccc(O)cc1 (stereo partly drawn) [Compound 9, (3S)-2-(4-hydroxybenzylidene)-3-isopropenyl-6-methylcyclohexanone]	> 250	> 250	–	847	–	–	80
C=C(C)[C@@H]1CCC(C)C(=O)C1=Cc1ccc2c(c1)OCO2 (stereo partly drawn) [Compound 7, (3S)-2-(1,3-benzodioxol-5-ylmethylene)-3-isopropenyl-6-methylcyclohexanone]	18.1 (≈ 63.7 µM)	146 to 148 (≈ 513 to 521 µM)	148.1 ± 1.4 (≈ 521 µM)	910	–	–	–
C=C(C)[C@@H]1CCC(C)C(=O)C1=Cc1ccccc1 (stereo partly drawn) [Compound 2, (3S)-2-benzylidene-3-isopropenyl-6-methylcyclohexanone]	> 250	> 250	–	>1000	–	–	–
C=C(C)[C@@H]1CCC(C)C(=O)C1 (some centres unmarked) [Compound 1, Dihydrocarvone]	> 250	> 250	–	550	–	–	–

Second part, led by results:

EC50 [1] [µg/mL]	EC50 [2] [µg/mL]	EC50 ± SD, mycelial growth inhibition [2] [µg/mL]	Compound	LD50 (BSLT) (Artemia salina L. larvae) [µg/mL]	inhibition at 150 µg/mL ([3]; 150 µg/mL) [%]	inhibition at 250 µg/mL ([3]; 250 µg/mL) [%]	times less toxic than the commercial control of M. fructicola (BSLT) (Artemia salina L. larvae; compared with the commercial control (Mystic 520 SC)) [times]
58 ± 0.7 (≈ 215 µM)	> 250	–	C=C(C)[C@@H]1CCC(C)C(=O)C1=Cc1ccccc1OC (stereo partly drawn) [Compound 3, (3S)-3-isopropenyl-2-(2-methoxybenzylidene)-6-methylcyclohexanone]	>1000	–	–	–
47.7 ± 0.8 (≈ 159 µM)	> 250	–	C=C(C)[C@@H]1CCC(C)C(=O)C1=Cc1ccc(OC)c(OC)c1 (stereo partly drawn) [Compound 6, (3S)-2-(3,4-dimethoxybenzylidene)-3-isopropenyl-6-methylcyclohexanone]	954	–	–	–
15.7 ± 1.3 (≈ 61.2 µM)	146 to 148 (≈ 569 to 578 µM)	145.9 ± 1.7 (≈ 569 µM)	C=C(C)[C@@H]1CCC(C)C(=O)C1=Cc1cccc(O)c1 (stereo partly drawn) [Compound 8, (3S)-2-(3-hydroxybenzylidene)-3-isopropenyl-6-methylcyclohexanone]	890	47 to 88	62 to 97	–
23.1 ± 1.2 (≈ 85.4 µM)	> 250	–	C=C(C)[C@@H]1CCC(C)C(=O)C1=Cc1ccc(OC)cc1 (stereo partly drawn) [Compound 5, (3S)-3-isopropenyl-2-(4-methoxybenzylidene)-6-methylcyclohexanone]	>1000	–	–	–
39.6 ± 1.1 (≈ 146 µM)	273.2 ± 0.9 (≈ 1010 µM)	–	C=C(C)[C@@H]1CCC(C)C(=O)C1=Cc1cccc(OC)c1 (stereo partly drawn) [Compound 4, (3S)-3-isopropenyl-2-(3-methoxybenzylidene)-6-methylcyclohexanone]	>1000	–	–	–
